How the values were obtained:
[1] = Antioxidant activity assessed as DPPH radical scavenging activity; assay type: functional
[2] = target: T1, Nuclear factor erythroid 2-related factor 2 (Mus musculus) (UniProt Q60795); test: Activation of Nrf2 in mouse Hepa1c1c7 cells assessed as increase in NQO1 activity at 15 uM; assay type: cell-based; conditions: filed as activator
T1 sequence (whole entry): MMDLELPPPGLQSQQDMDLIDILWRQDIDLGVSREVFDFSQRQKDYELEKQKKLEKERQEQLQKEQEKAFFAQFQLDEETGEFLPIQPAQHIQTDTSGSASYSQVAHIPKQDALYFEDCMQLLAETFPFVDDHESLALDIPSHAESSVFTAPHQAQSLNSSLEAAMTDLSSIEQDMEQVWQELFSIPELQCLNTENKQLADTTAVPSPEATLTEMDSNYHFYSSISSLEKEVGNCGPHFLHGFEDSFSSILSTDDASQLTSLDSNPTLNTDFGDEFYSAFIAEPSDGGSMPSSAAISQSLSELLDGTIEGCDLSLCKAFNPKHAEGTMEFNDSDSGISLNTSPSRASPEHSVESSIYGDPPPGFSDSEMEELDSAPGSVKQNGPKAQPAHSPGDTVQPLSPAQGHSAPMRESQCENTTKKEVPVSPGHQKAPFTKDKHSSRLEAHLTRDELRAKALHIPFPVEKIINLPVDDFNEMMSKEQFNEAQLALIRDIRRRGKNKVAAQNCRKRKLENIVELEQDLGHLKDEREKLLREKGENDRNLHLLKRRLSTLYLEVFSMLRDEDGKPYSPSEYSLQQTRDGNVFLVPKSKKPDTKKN

[3] = target: T1, Nuclear factor erythroid 2-related factor 2 (Mus musculus); test: Activation of Nrf2 in mouse Hepa1c1c7 cells assessed as increase in NQO1 activity at 3.75 uM; assay type: cell-based; conditions: filed as activator
[4] = target: T1, Nuclear factor erythroid 2-related factor 2 (Mus musculus); test: Activation of Nrf2 in mouse Hepa1c1c7 cells assessed as increase in NQO1 activity at 7.5 uM; assay type: cell-based; conditions: filed as activator
[5] = target: T1, Nuclear factor erythroid 2-related factor 2 (Mus musculus); test: Activation of Nrf2 in mouse Hepa1c1c7 cells assessed as increase in NQO1 activity at 0.2 uM; assay type: cell-based; conditions: filed as activator
[6] = target: T1, Nuclear factor erythroid 2-related factor 2 (Mus musculus); test: Activation of Nrf2 in mouse Hepa1c1c7 cells assessed as increase in NQO1 activity at 0.9 uM; assay type: cell-based; conditions: filed as activator
[7] = target: T1, Nuclear factor erythroid 2-related factor 2 (Mus musculus); test: Activation of Nrf2 in mouse Hepa1c1c7 cells assessed as increase in NQO1 activity at 1.9 uM; assay type: cell-based; conditions: filed as activator
[8] = target: T1, Nuclear factor erythroid 2-related factor 2 (Mus musculus); test: Activation of Nrf2 in mouse Hepa1c1c7 cells assessed as increase in NQO1 activity at 0.5 uM; assay type: cell-based; conditions: filed as activator
[9] = target: T1, Nuclear factor erythroid 2-related factor 2 (Mus musculus); test: Activation of Nrf2 in mouse Hepa1c1c7 cells assessed as increase in NQO1 activity at 30 uM; assay type: cell-based; conditions: filed as activator

IC50 [1] | Activity [2] | Activity [3] | Activity [4] | Activity [5] | Activity [6] | Activity [7] | Activity [8] | Activity [9] | SMILES
57.1 µM | – | – | – | – | – | – | – | – | NS(=O)(=O)c1ccc(-n2c(S)nc3c(I)cc(I)cc3c2=O)cc1
98.9 µM | 1.8 | 1.13 | 1.23 | 1.05 | 1.11 | 1.12 | 1.06 | – | NS(=O)(=O)c1ccc(-n2c(SCC(=O)Nc3ccccc3F)nc3c(I)cc(I)cc3c2=O)cc1
59.4 µM | 1.31 | 1.1 | 1.21 | 1.01 | 1.07 | 1.06 | 1.04 | 1.47 | NS(=O)(=O)c1ccc(-n2c(SCC(=O)Nc3cccc(F)c3)nc3c(I)cc(I)cc3c2=O)cc1
128 µM | – | – | – | – | – | – | – | – | O=C1O[C@H]([C@@H](O)CO)C(O)=C1O [ASCORBIC ACID]
